Molecules are shown by their SMILES.

One test deals with HCV 1b-377-neo replicon cells. Briefly: HCV replicon assay, HCV 1b-377-neo replicon cells (1b FRET). Particulars: HCV 1b-377-neo replicon cells; HCV 1b genotype. It is filed as cell-based, Hepatitis C virus genotype 1b. The procedure, abridged:
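Compounds were tested in genotype 1b subgenomic replicon cells carrying a neomycin marker, alongside a matched replicon line with an NS5A Y2065H substitution that confers resistance to a reference NS5A inhibitor.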
For orientation: A replicon is a self-replicating genome or part of one, used to study replication in cells.
As for `COC(=O)N[C@H](C(=O)N1CCC[C@H]1c1ncc(-c2ccc(-c3ccc(-c4cnc([C@@H]5CCCN5C(=O)[C@@H](NC(=O)OC)C(C)C)[nH]4)cc3C(=O)O)cc2)[nH]1)C(C)C` [Example M114, 4,4′-bis(2-((2S)-1-(N-(methoxycarbonyl)-L-valyl)-2-pyrrolidinyl)-1H-imidazol-5-yl)-2-biphenylcarboxylic acid], the “EC50 range against HCV 1b (Table 2, Range)” value (from here on “EC50 range against HCV 1b”) was “>A”.

`COC(=O)N[C@@H](C(=O)N1CCC[C@H]1c1ncc(-c2ccc(-c3ccc(-c4cnc([C@@H]5CCCN5C(=O)[C@H](NC(=O)OC)C5CC5)[nH]4)cc3C(=O)O)cc2)[nH]1)C1CC1` [Example M115, 4,4′-bis(2-((2S)-1-((2R)-2-cyclopropyl-2-((methoxycarbonyl)amino)acetyl)-2-pyrrolidinyl)-1H-imidazol-5-yl)-2-biphenylcarboxylic acid]: the “EC50 range against HCV 1b” value is reported as “>A”.

As for `COC(=O)N[C@H](C(=O)N1CCC[C@H]1c1ncc(-c2ccc(-c3ccc(-c4cnc([C@@H]5CCCN5C(=O)[C@@H](NC(=O)OC)C5CC5)[nH]4)cc3C(=O)O)cc2)[nH]1)C1CC1` [Example M116, 4,4′-bis(2-((2S)-1-((2S)-2-cyclopropyl-2-((methoxycarbonyl)amino)acetyl)-2-pyrrolidinyl)-1H-imidazol-5-yl)-2-biphenylcarboxylic acid], the “EC50 range against HCV 1b” value is “>A”.

`COC(=O)N[C@@H](C(=O)N1CCC[C@H]1c1ncc(-c2ccc(-c3ccc(-c4cnc([C@@H]5CCCN5C(=O)[C@H](NC(=O)OC)c5ccccc5)[nH]4)cc3C(=O)O)cc2)[nH]1)c1ccccc1` [Example M117, 4,4′-bis(2-((2S)-1-((2R)-2-((methoxycarbonyl)amino)-2-phenylacetyl)-2-pyrrolidinyl)-1H-imidazol-5-yl)-2-biphenylcarboxylic acid]: the “EC50 range against HCV 1b” value is listed as “>A”.

In the case of `COC(=O)N[C@H](C(=O)N1CCC[C@H]1c1ncc(-c2ccc(-c3ccc(-c4cnc([C@@H]5CCCN5C(=O)[C@@H](NC(=O)OC)C(C)C)[nH]4)cc3C(N)=O)cc2)[nH]1)C(C)C` [Example M118, methyl ((1S)-1-(((2S)-2-(5-(2′-carbamoyl-4′-(2-((2S)-1-((2S)-2-((methoxycarbonyl)amino)-3-methylbutanoyl)-2-pyrrolidinyl)-1H-imidazol-5-yl)-4-biphenylyl)-1H-imidazol-2-yl)-1-pyrrolidinyl)carbonyl)-2-methylpropyl)carbamate], the “EC50 range against HCV 1b” value is reported as “>A”.

The test is the same for the next values; noted with them: Hepatitis C virus, HCV 1b-377-neo replicon cells; HCV 1b genotype; read-out: EC50 range against HCV 1b (Table 2, Range).
As a reminder, the EC50 is the concentration giving half of the maximal effect. Consider `CCN(CC)[C@@H](C(=O)N1CCC[C@H]1c1ncc(-c2ccc(-c3ccc(-c4cnc([C@@H]5CCCN5C(=O)[C@H](C)NC(=O)OC)[nH]4)cc3)cc2)[nH]1)C(C)C` [Example M101, methyl ((1S)-2-((2S)-2-(5-(4′-(2-((2S)-1-(N,N-diethyl-D-valyl)-2-pyrrolidinyl)-1H-imidazol-5-yl)-4-biphenylyl)-1H-imidazol-2-yl)-1-pyrrolidinyl)-1-methyl-2-oxoethyl)carbamate], for which the EC50 lay in the range of 100 to 999 nM.

In the case of `CCCN(CCC)[C@H](C)C(=O)N1CCC[C@H]1c1ncc(-c2ccc(-c3ccc(-c4cnc([C@@H]5CCCN5C(=O)[C@H](C)NC(=O)OC)[nH]4)cc3)cc2)[nH]1` [Example M102, methyl ((1S)-2-((2S)-2-(5-(4′-(2-((2S)-1-(N,N-dipropyl-D-alanyl)-2-pyrrolidinyl)-1H-imidazol-5-yl)-4-biphenylyl)-1H-imidazol-2-yl)-1-pyrrolidinyl)-1-methyl-2-oxoethyl)carbamate], the EC50 was 1 to 99 nM.

Take `CCCN(CCC)[C@@H](C)C(=O)N1CCC[C@H]1c1ncc(-c2ccc(-c3ccc(-c4cnc([C@@H]5CCCN5C(=O)[C@H](C)NC(=O)OC)[nH]4)cc3)cc2)[nH]1` [Example M103, methyl ((1S)-2-((2S)-2-(5-(4′-(2-((2S)-1-(N,N-dipropyl-L-alanyl)-2-pyrrolidinyl)-1H-imidazol-5-yl)-4-biphenylyl)-1H-imidazol-2-yl)-1-pyrrolidinyl)-1-methyl-2-oxoethyl)carbamate]: the EC50 lay within 100 to 999 nM.

Turning to `COC(=O)N[C@H](C(=O)N1CCC[C@H]1c1ncc(-c2ccc(-c3ccc(-c4cnc([C@@H]5CCCN5C(=O)[C@@H](N)C(C)(C)O)[nH]4)cc3)cc2)[nH]1)C(C)C` [Example M104, methyl ((1S)-1-(((2S)-2-(5-(4′-(2-((2S)-1-(3-hydroxy-L-valyl)-2-pyrrolidinyl)-1H-imidazol-5-yl)-4-biphenylyl)-1H-imidazol-2-yl)-1-pyrrolidinyl)carbonyl)-2-methylpropyl)carbamate], the half-maximal effective concentration (EC50) fell in the range of 100 to 999 nM.

For the compound `COC(=O)N[C@H](C(=O)N1CCC[C@H]1c1ncc(-c2ccc(-c3ccc(-c4cnc([C@@H]5CCCN5C(=O)[C@@H](NC(=O)OC)C(C)(C)O)[nH]4)cc3)cc2)[nH]1)C(C)C` [Example M105], the EC50 lay in the range of 1 to 99 nM.

`COC(=O)N[C@H](C(=O)N1CCC[C@H]1c1ncc(-c2ccc(-c3ccc(-c4cnc([C@@H]5CCCN5C(=O)[C@@H](NC(=O)OC)[C@@H](C)CO)[nH]4)cc3)cc2)[nH]1)C(C)C` [Example M106]: the concentration giving a half-maximal response (EC50) was in the range of 1 to 99 nM.

In the case of `COC(=O)N[C@H](C(=O)N1CCC[C@H]1c1ncc(-c2ccc(-c3ccc(-c4cnc([C@@H]5CCCN5C(=O)[C@@H](NC(=O)OC)[C@H](C)CO)[nH]4)cc3)cc2)[nH]1)C(C)C` [Example M107], the EC50 was in the range of 1 to 99 nM.

For `COC(=O)N[C@H](C(=O)N1CCC[C@H]1c1ncc(-c2ccc(-c3ccc(-c4cnc([C@@H]5CCCN5C(=O)[C@@H](N)C(C)C)[nH]4)cc3)cc2)[nH]1)C(C)C` [Example M108, methyl ((1S)-2-methyl-1-(((2S)-2-(5-(4′-(2-((2S)-1-L-valyl-2-pyrrolidinyl)-1H-imidazol-5-yl)-4-biphenylyl)-1H-imidazol-2-yl)-1-pyrrolidinyl)carbonyl)propyl)carbamate], the concentration giving a half-maximal response (EC50) lay in the range of 1 to 99 nM.

In the case of `COC(=O)N[C@@H](CC(=O)OCc1ccccc1)C(=O)N1CCC[C@H]1c1ncc(-c2ccc(-c3ccc(-c4cnc([C@@H]5CCCN5C(=O)[C@@H](NC(=O)OC)C(C)C)[nH]4)cc3)cc2)[nH]1` [Example M109, benzyl (3S)-3-((methoxycarbonyl)amino)-4-((2S)-2-(5-(4′-(2-((2S)-1-(N-(methoxycarbonyl)-L-valyl)-2-pyrrolidinyl)-1H-imidazol-5-yl)-4-biphenylyl)-1H-imidazol-2-yl)-1-pyrrolidinyl)-4-oxobutanoate], the EC50 lay within 1 to 99 nM.

Turning to `COC(=O)C[C@H](NC(=O)OC)C(=O)N1CCC[C@H]1c1ncc(-c2ccc(-c3ccc(-c4cnc([C@@H]5CCCN5C(=O)[C@@H](NC(=O)OC)C(C)C)[nH]4)cc3)cc2)[nH]1` [Example M110, methyl (3S)-3-((methoxycarbonyl)amino)-4-((2S)-2-(5-(4′-(2-((2S)-1-(N-(methoxycarbonyl)-L-valyl)-2-pyrrolidinyl)-1H-imidazol-5-yl)-4-biphenylyl)-1H-imidazol-2-yl)-1-pyrrolidinyl)-4-oxobutanoate], the EC50 lay in the range of 1 to 99 nM.

For `COC(=O)N[C@@H](CC(=O)O)C(=O)N1CCC[C@H]1c1ncc(-c2ccc(-c3ccc(-c4cnc([C@@H]5CCCN5C(=O)[C@@H](NC(=O)OC)C(C)C)[nH]4)cc3)cc2)[nH]1` [Example M111, (3S)-3-((methoxycarbonyl)amino)-4-((2S)-2-(5-(4′-(2-((2S)-1-(N-(methoxycarbonyl)-L-valyl)-2-pyrrolidinyl)-1H-imidazol-5-yl)-4-biphenylyl)-1H-imidazol-2-yl)-1-pyrrolidinyl)-4-oxobutanoic acid], the EC50 lay in the range of 1000 to 10000 nM.

Turning to `COC(=O)N[C@@H](CC(=O)N1CCN(C)CC1)C(=O)N1CCC[C@H]1c1ncc(-c2ccc(-c3ccc(-c4cnc([C@@H]5CCCN5C(=O)[C@@H](NC(=O)OC)C(C)C)[nH]4)cc3)cc2)[nH]1` [Example M112, methyl ((1S)-1-(((2S)-2-(5-(4′-(2-((2S)-1-((2S)-2-((methoxycarbonyl)amino)-4-(4-methyl-1-piperazinyl)-4-oxobutanoyl)-2-pyrrolidinyl)-1H-imidazol-5-yl)-4-biphenylyl)-1H-imidazol-2-yl)-1-pyrrolidinyl)carbonyl)-2-methylpropyl)carbamate], the EC50 lay in the range of 1 to 99 nM.

Take `COC(=O)N[C@@H](CC(=O)N(C)C)C(=O)N1CCC[C@H]1c1ncc(-c2ccc(-c3ccc(-c4cnc([C@@H]5CCCN5C(=O)[C@@H](NC(=O)OC)C(C)C)[nH]4)cc3)cc2)[nH]1` [Example M113, methyl ((1S)-3-(dimethylamino)-1-(((2S)-2-(5-(4′-(2-((2S)-1-((2S)-2-((methoxycarbonyl)amino)-3-methylbutanoyl)-2-pyrrolidinyl)-1H-imidazol-5-yl)-4-biphenylyl)-1H-imidazol-2-yl)-1-pyrrolidinyl)carbonyl)-3-oxopropyl)carbamate]: the concentration giving a half-maximal response (EC50) is 1 to 99 nM.

With `COC(=O)N[C@H](C(=O)N1CCC[C@H]1c1ncc(-c2ccc(-c3ccc(-c4cnc([C@@H]5CCCN5C(=O)[C@@H](NC(=O)OC)C(C)C)[nH]4)cc3CO)cc2)[nH]1)C(C)C` [Example M119, methyl ((1S)-1-(((2S)-2-(5-(2-(hydroxymethyl)-4′-(2-((2S)-1-((2S)-2-((methoxycarbonyl)amino)-3-methylbutanoyl)-2-pyrrolidinyl)-1H-imidazol-5-yl)-4-biphenylyl)-1H-imidazol-2-yl)-1-pyrrolidinyl)carbonyl)-2-methylpropyl)carbamate], the EC50 is 100 to 999 nM.

In the case of `COC(=O)N[C@H](C(=O)N1CCC[C@H]1c1ncc(-c2ccc(-c3ccc(-c4cnc([C@@H]5CCCN5C(=O)[C@@H](NC(=O)OC)C(C)C)[nH]4)cc3CN(C)C)cc2)[nH]1)C(C)C` [Example M120], the EC50 was in the range of 100 to 999 nM.

Take `COC(=O)N[C@@H](C(=O)N1CCC[C@H]1c1ncc(-c2ccc(-c3ccc(-c4cnc([C@@H]5CCCN5C(=O)[C@H](NC(=O)OC)c5ccccc5)[nH]4)cc3CN(C)C)cc2)[nH]1)c1ccccc1` [Example M121]: the EC50 fell in the range of 100 to 999 nM.

These data come from patent publication US8574563B2 (Bristol-Myers Squibb Company, priority 2006, dated 2013).
